Source: publication PMC8506265 (Bioorganic & medicinal chemistry, 2021)

Tests used:
human CB1 [1] = biological target: T1, human CB1 (Homo sapiens, UniProt P21554); assay: BRET CAMYEL cAMP assay in HEK293 3HA-hCB1 cells; assay type: cell-based
human CB1 [2] = biological target: T1, human CB1; assay type: biochemical; conditions: operational model of allosterism; probe CP55,940
human CB1 [3] = biological target: T1, human CB1; assay: hCB1 calcium mobilization assay
human CB1 [4] = biological target: T1, human CB1; assay: [35S]GTPγS binding assay, hCB1 HEK293 membranes; assay type: biochemical

T1 sequence (P21554 whole entry): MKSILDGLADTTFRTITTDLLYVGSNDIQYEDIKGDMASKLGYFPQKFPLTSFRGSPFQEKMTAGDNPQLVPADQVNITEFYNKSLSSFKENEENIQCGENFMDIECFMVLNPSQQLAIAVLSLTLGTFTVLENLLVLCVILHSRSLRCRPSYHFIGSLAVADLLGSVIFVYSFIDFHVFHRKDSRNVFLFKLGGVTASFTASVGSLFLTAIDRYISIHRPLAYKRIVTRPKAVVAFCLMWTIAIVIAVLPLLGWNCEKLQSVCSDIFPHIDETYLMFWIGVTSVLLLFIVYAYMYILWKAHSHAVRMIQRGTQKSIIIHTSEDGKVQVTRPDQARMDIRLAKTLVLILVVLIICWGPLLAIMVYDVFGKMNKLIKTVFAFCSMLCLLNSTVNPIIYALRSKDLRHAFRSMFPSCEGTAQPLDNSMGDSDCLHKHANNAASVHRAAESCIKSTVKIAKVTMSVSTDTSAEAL

| Compound | potency in the cAMP assay (human CB1 [1]) | IC50 (human CB1 [3]) [µM] | IC50 (human CB1 [4]) [µM] | further results |
| --- | --- | --- | --- | --- |
| O=C(NCCc1ccccc1)Nc1ccc(Cl)cc1 [Compound 8, 3‐(4‐Chlorophenyl)‐1‐(2‐phenylethyl)urea] | low micromolar range |  |  |  |
| O=C(NCCc1ccc(N2CCCCC2)cc1)Nc1ccc(Cl)cc1 [Compound 9, 1-(4-Chlorophenyl)-3-{2-[4-(piperidin-1-yl)phenyl]ethyl}-urea] |  |  |  | alpha (binding cooperativity) (human CB1 [2]): 5.1; beta (modification of probe efficacy) (human CB1 [2]): 0.09; logalpha (binding cooperativity) (human CB1 [2]): 0.7 ± 0.1; logbeta (modification of probe efficacy) (human CB1 [2]): −1.1 ± 0.1 |
| CN(C)c1ccc(CCNC(=O)Nc2ccc(Cl)cc2)cc1 [Compound 12, 3‐(4‐Chlorophenyl)‐1‐{2‐[4‐(dimethylamino)phenyl]ethyl}-urea] | low micromolar range |  |  |  |
| O=C(NCc1ccccc1)Nc1ccc(Cl)cc1 [Compound 13, 3‐(4‐Chlorophenyl)‐1‐(3‐phenylmethyl)urea] |  | > 10 |  |  |
| CC(C)(CNC(=O)Nc1ccc(Cl)cc1)c1ccccc1 [Compound 15, 1-(4-Chlorophenyl)-3-(2-methyl-2-phenylpropyl)urea] |  | > 10 |  |  |
| CC(C)(Cc1ccccc1)NC(=O)Nc1ccc(Cl)cc1 [Compound 16, 1-(4-Chlorophenyl)-3-(2-methyl-1-phenylpropan-2-yl)urea] |  | > 10 |  |  |
| O=C(Nc1ccc(Cl)cc1)NC1(Cc2ccccc2)CC1 [Compound 19, 1-(1-Benzylcyclopropyl)-3-(4-chlorophenyl)urea] |  | > 10 |  |  |
| O=C(NCCc1ccsc1)Nc1ccc(Cl)cc1 [Compound 24, 1-(4-Chlorophenyl)-3-[2-(thiophen-3-yl)ethyl]urea] |  | 1.58 | 7.94 |  |
| O=C(NCCc1cccs1)Nc1ccc(Cl)cc1 [Compound 25, 1-(4-Chlorophenyl)-3-[2-(thiophen-2-yl)ethyl]urea] |  | 0.794 | 7.94 |  |
| Cc1ccc(CCNC(=O)Nc2ccc(Cl)cc2)o1 [Compound 26, 1‐(4‐Chlorophenyl)‐3‐[2‐(5‐methylfuran‐2‐yl)ethyl]urea] | low micromolar range | 0.251 | 12.6 | IC50 (human CB1 [1]): 3.98 µM |
